From patent US9227923B2, “Pesticidal carboxamides” (Bayer Intellectual Property GmbH, priority 2009, dated 2016)

Assays:
Format in all cases: in vivo
[1] = tested on: Tobacco Cutworm (Spodoptera litura) Larvae; test: Test against tobacco cutworm (Spodoptera litura) larvae, leaf dip; conditions: active compound concentration of 100 ppm; third instar larvae; after 7 days
Method: (§1) Solvent: 3 parts by weight of dimethylformamide
(§2) Emulsifier: 1 part by weight of polyoxyethylene alkyl phenyl ether
Leaves of sweet potato were immersed in the test solution at the appropriate concentration, and the leaves were dried in air. The leaves were then placed in a petri dish having a diameter of 9 cm, and ten Spodoptera litura at third instar larvae were released therein. The petri dishes were placed in a temperature-controlled chamber at 25° C. After 2 days and 4 days more sweet potato leaves were added. After 7 days, the number of dead larvae was counted to calculate the insecticidal activity. An insecticidal activity of 100% means that all larvae were killed, whereas an insecticidal activity of 0% means that no larva was killed.

[2] = tested on: Two-Spotted Spider Mite (Tetranychus Urticae); test: Test against two-spotted spider mite (Tetranychus urticae), spray; conditions: active compound concentration of 100 ppm; adult mites; after 7 days
Description: as §1, §2

[3] = tested on: Cucurbit Leaf Beetle (Aulacophora Femoralis); test: Test against cucurbit leaf beetle (Aulacophora femoralis), leaf dip; conditions: active compound concentration of 100 ppm; second instar larvae; after 7 days
Method: as §1, §2
Leaves of cucumber were immersed in the test solution at the appropriate concentration, and the leaves were dried in air. The leaves were then put in a plastic cup containing sterilized black soil and five Aulacophora femoralis at second instar larvae were released in the cup. The cups were placed in a temperature-controlled chamber at 25° C. After 7 days, the number of dead larvae was counted, and thus the insecticidal activity was calculated. An insecticidal activity of 100% means that all larvae were killed, whereas an insecticidal activity of 0% means that no larva was killed.

Work on `CC(=O)NCc1ccc(C(=O)Nc2c(Cl)cc(C(F)(C(F)(F)F)C(F)(F)C(F)(F)F)cc2Cl)cc1Cl` (racemic) [Compound 5-242] yielded an insecticidal activity [1] of 100%, an acaricidal activity [2] of 100% and an insecticidal activity [3] of 100%.

Work on `CCC(=O)NCc1ccc(C(=O)Nc2c(Cl)cc(C(F)(C(F)(F)F)C(F)(F)C(F)(F)F)cc2Cl)cc1Cl` (racemic) [Compound 5-243] yielded an insecticidal activity [1] of 100%, an acaricidal activity [2] of 100% and an insecticidal activity [3] of 100%.

In the case of `O=C(CC(F)(F)F)NCc1ccc(C(=O)Nc2c(Cl)cc(C(F)(C(F)(F)F)C(F)(F)C(F)(F)F)cc2Cl)cc1Cl` (racemic) [Compound 5-244], the insecticidal activity [1] is reported as 100%, the acaricidal activity [2] is reported as 100% and the insecticidal activity [3] is reported as 100%.

Work on `CCC(=O)NCc1ccc(C(=O)Nc2c(C)cc(C(F)(C(F)(F)F)C(F)(F)F)cc2CC)cc1` [Compound 5-29] yielded an insecticidal activity [1] of 100% and an acaricidal activity [2] of 100%.

`CCc1cc(C(F)(C(F)(F)F)C(F)(F)F)cc(C)c1NC(=O)c1ccc(CNC(=O)C2CC2)cc1` [Compound 5-30] showed an insecticidal activity [1] of 100%, an acaricidal activity [2] of 100% and an insecticidal activity [3] of 100%.

With `CCc1cc(C(F)(C(F)(F)F)C(F)(F)F)cc(C)c1NC(=O)c1ccc(CNC(=O)CC(F)(F)F)cc1` [Compound 5-32] the insecticidal activity [1] was 100% and the acaricidal activity [2] was 100%.

`CCc1cc(C(F)(C(F)(F)F)C(F)(F)F)cc(C)c1NC(=O)c1ccc(CNC(=O)CSC)cc1` [Compound 5-33] was tested, and the acaricidal activity [2] was 100%.

`CCc1cc(C(F)(C(F)(F)F)C(F)(F)F)cc(C)c1NC(=O)c1ccc(CNC(=O)c2ccc(F)cc2)cc1` [Compound 5-36] showed an insecticidal activity [1] of 100%, an acaricidal activity [2] of 100% and an insecticidal activity [3] of 100%.

`CCc1cc(C(F)(C(F)(F)F)C(F)(F)F)cc(C)c1NC(=O)c1ccc(CNC(=O)c2cccnc2F)cc1` [Compound 5-40] was tested, and the acaricidal activity [2] was 100% and the insecticidal activity [3] was 100%.

Work on `CCc1cc(C(F)(C(F)(F)F)C(F)(F)F)cc(C)c1NC(=O)c1ccc(CNC(=O)c2cccnc2Cl)cc1` [Compound 5-41] yielded an insecticidal activity [1] of 100%, an acaricidal activity [2] of 100% and an insecticidal activity [3] of 100%.

`CCc1cc(C(F)(C(F)(F)F)C(F)(F)F)cc(C)c1NC(=O)c1ccc(CNC(C)=O)cc1F` [Compound 5-44] was tested, and the acaricidal activity [2] was 100% and the insecticidal activity [3] was 100%.

Compound `CCc1cc(C(F)(C(F)(F)F)C(F)(F)F)cc(C)c1NC(=O)c1cc(F)c(CNC(C)=O)cc1F` [Compound 5-58] has an insecticidal activity [1] of 100%, an acaricidal activity [2] of 100% and an insecticidal activity [3] of 100%.

In the case of `CCc1cc(C(F)(C(F)(F)F)C(F)(F)F)cc(C)c1NC(=O)c1cc(F)c(CNC(=O)CC2CC2)cc1F` [Compound 5-61], the insecticidal activity [1] is reported as 100%, the acaricidal activity [2] is reported as 100% and the insecticidal activity [3] is reported as 100%.

`CCc1cc(C(F)(C(F)(F)F)C(F)(F)F)cc(C)c1NC(=O)c1cc(F)c(CNC(=O)CC(F)(F)F)cc1F` [Compound 5-62] was tested, and the insecticidal activity [1] was 100%, the acaricidal activity [2] was 100% and the insecticidal activity [3] was 100%.

`CCC(=O)NCc1ccc(C(=O)Nc2c(C)cc(C(F)(C(F)(F)F)C(F)(F)F)cc2CC)cc1F` [Compound 5-72] showed an insecticidal activity [1] of 100% and an acaricidal activity [2] of 100%.

`CCc1cc(C(F)(C(F)(F)F)C(F)(F)F)cc(C)c1NC(=O)c1ccc(CNC(C)=O)c(Cl)c1` [Compound 5-77] was tested, and the insecticidal activity [1] was 100%, the acaricidal activity [2] was 100% and the insecticidal activity [3] was 100%.

Compound `CCC(=O)NCc1ccc(C(=O)Nc2c(C)cc(C(F)(C(F)(F)F)C(F)(F)F)cc2CC)cc1Cl` [Compound 5-78] has an insecticidal activity [1] of 100%, an acaricidal activity [2] of 100% and an insecticidal activity [3] of 100%.

`CCc1cc(C(F)(C(F)(F)F)C(F)(F)F)cc(C)c1NC(=O)c1ccc(CNC(=O)CC2CC2)c(Cl)c1` [Compound 5-80] gave an insecticidal activity [1] of 100% and an acaricidal activity [2] of 100%.

For `CCc1cc(C(F)(C(F)(F)F)C(F)(F)F)cc(C)c1NC(=O)c1ccc(CNC(=O)CC2CC2)c(Br)c1` [Compound 5-88], the insecticidal activity [1] was 100% and the acaricidal activity [2] was 100%.

Compound `CCc1cc(C(F)(C(F)(F)F)C(F)(F)F)cc(C)c1NC(=O)c1ccc(CNC(=O)COC)c(Br)c1` [Compound 5-91] has an insecticidal activity [1] of 100% and an acaricidal activity [2] of 100%.

Work on `CCc1cc(C(F)(C(F)(F)F)C(F)(F)F)cc(C)c1NC(=O)c1ccc(CNC(=O)c2ccc(F)cc2)c(Br)c1` [Compound 5-92] yielded an acaricidal activity [2] of 100%.

In the case of `CCc1cc(C(F)(C(F)(F)F)C(F)(F)F)cc(C)c1NC(=O)c1ccc(CNC(=O)c2cccnc2Cl)c(Br)c1` [Compound 5-94], the insecticidal activity [1] is reported as 100% and the acaricidal activity [2] is reported as 100%.

Work on `CCc1cc(C(F)(C(F)(F)F)C(F)(F)F)cc(C)c1NC(=O)c1ccc(CNC(=O)CC(F)(F)F)c(C(F)(F)F)c1` [Compound 5-110] yielded an insecticidal activity [1] of 100% and an acaricidal activity [2] of 100%.

Work on `CCc1cc(C(F)(C(F)(F)F)C(F)(F)F)cc(C)c1NC(=O)c1ccc(CNC(=O)c2cccnc2F)c(C(F)(F)F)c1` [Compound 5-112] yielded an insecticidal activity [1] of 100% and an acaricidal activity [2] of 100%.

For `CCc1cc(C(F)(C(F)(F)F)C(F)(F)C(F)(F)F)cc(C)c1NC(=O)c1ccc(CNC(=O)CC2CC2)c(F)c1` (centres unmarked) [Compound 5-147], the insecticidal activity [1] was 100% and the acaricidal activity [2] was 100%.

For `CCc1cc(C(F)(C(F)(F)F)C(F)(F)C(F)(F)F)cc(C)c1NC(=O)c1ccc(CNC(=O)CC2CC2)c(Cl)c1` (centres unmarked) [Compound 5-153], the insecticidal activity [1] was 100% and the acaricidal activity [2] was 100%.

`CCC(=O)N(C)Cc1ccc(C(=O)Nc2c(C)cc(C(F)(C(F)(F)F)C(F)(F)F)cc2CC)cc1` [Compound 5-186] was tested, and the acaricidal activity [2] was 100%.

`CCc1cc(C(F)(C(F)(F)F)C(F)(F)F)cc(C)c1NC(=O)c1ccc(CN(C)C(=O)CC2CC2)cc1` [Compound 5-187] was tested, and the acaricidal activity [2] was 100%.

Compound `CCc1cc(C(F)(C(F)(F)F)C(F)(F)F)cc(C)c1NC(=O)c1ccc(CN(C)C(=O)CC(F)(F)F)cc1` [Compound 5-188] has an insecticidal activity [1] of 100% and an acaricidal activity [2] of 100%.

Compound `CCc1cc(C(F)(C(F)(F)F)C(F)(F)F)cc(C)c1NC(=O)c1ccc(CNC(=O)CC(F)(F)F)c(I)c1` [Compound 5-192] has an insecticidal activity [1] of 100% and an acaricidal activity [2] of 100%.

With `CCC(=O)NCc1ccc(C(=O)Nc2c(Cl)cc(C(F)(C(F)(F)F)C(F)(F)F)cc2Cl)cc1` [Compound 5-224] the acaricidal activity [2] was 100% and the insecticidal activity [3] was 100%.

`CCc1cc(C(F)(C(F)(F)F)C(F)(F)Br)cc(C)c1NC(=O)c1ccc(CNC(=O)CC2CC2)c(Cl)c1` (centres unmarked) [Compound 5-319] was tested, and the insecticidal activity [1] was 100% and the acaricidal activity [2] was 100%.

For `CC(=O)NCc1ccc(C(=O)Nc2c(C)cc(C(F)(C(F)(F)F)C(F)(F)F)cc2Cl)cc1` [Compound 5-333], the acaricidal activity [2] was 100%.

Work on `Cc1cc(C(F)(C(F)(F)F)C(F)(F)F)cc(OC(F)F)c1NC(=O)c1ccc(CNC(=O)CC2CC2)c(Cl)c1` [Compound 5-340] yielded an insecticidal activity [1] of 100% and an acaricidal activity [2] of 100%.

Compound `CCc1cc(C(F)(C(F)(F)F)C(F)(F)F)cc(C)c1NC(=O)c1ccc(CNC(=O)c2cccnc2F)c2ccccc12` [Compound 6-7] has an insecticidal activity [1] of 100% and an insecticidal activity [3] of 100%.

`CCc1cc(C(F)(C(F)(F)F)C(F)(F)F)cc(C)c1NC(=O)c1ccc(CNC(C)=O)cn1` [Compound 7-2] showed an insecticidal activity [1] of 100% and an insecticidal activity [3] of 100%.

For `CCC(=O)NCc1ccc(C(=O)Nc2c(C)cc(C(F)(C(F)(F)F)C(F)(F)F)cc2CC)nc1` [Compound 7-3], the insecticidal activity [1] was 100% and the insecticidal activity [3] was 100%.

With `CCc1cc(C(F)(C(F)(F)F)C(F)(F)F)cc(C)c1NC(=O)c1ccc(CNC(C)=O)nc1` [Compound 8-2] the insecticidal activity [1] was 100% and the insecticidal activity [3] was 100%.

`CCc1cc(C(F)(C(F)(F)F)C(F)(F)F)cc(C)c1NC(=O)c1ccc(C(C)NC(=O)CC(F)(F)F)cc1` (centres unmarked) [Compound 9-6] gave an insecticidal activity [1] of 100% and an insecticidal activity [3] of 100%.

Work on `CCc1cc(C(F)(C(F)(F)F)C(F)(F)F)cc(C)c1NC(=O)c1ccc2c(c1)CCC2NC(=O)CC1CC1` (centres unmarked) [Compound 10-5] yielded an insecticidal activity [1] of 100% and an acaricidal activity [2] of 100%.

Compound `CCC(=O)NC1CCc2cc(C(=O)Nc3c(C)cc(C(F)(C(F)(F)F)C(F)(F)C(F)(F)F)cc3CC)ccc21` (centres unmarked) [Compound 10-10] has an insecticidal activity [1] of 100% and an acaricidal activity [2] of 100%.

`CCc1cc(C(F)(C(F)(F)F)C(F)(F)F)cc(C)c1NC(=O)c1ccc2c(c1)CCC2NC(=O)CSC` (centres unmarked) [Compound 10-22] gave an insecticidal activity [1] of 100% and an insecticidal activity [3] of 100%.

`CCc1cc(C(F)(C(F)(F)F)C(F)(F)F)cc(C)c1NC(=O)c1ccc2c(c1)CCCC2NC(C)=O` (centres unmarked) [Compound 11-2] gave an insecticidal activity [1] of 100% and an acaricidal activity [2] of 100%.

In the case of `N#Cc1ccc(C(=O)Nc2c(Cl)cc(C(F)(C(F)(F)F)C(F)(F)F)cc2Cl)cc1` [Compound I-24], the insecticidal activity [1] is reported as 100% and the insecticidal activity [3] is reported as 100%.

For `N#Cc1ccc(C(=O)Nc2c(Br)cc(C(F)(C(F)(F)F)C(F)(F)F)cc2Br)cc1` [Compound I-26], the insecticidal activity [1] was 100% and the insecticidal activity [3] was 100%.

In the case of `N#Cc1ccc(C(=O)Nc2c(Cl)cc(C(F)(C(F)(F)F)C(F)(F)C(F)(F)F)cc2Cl)cc1` (centres unmarked) [Compound I-27], the insecticidal activity [1] is reported as 100% and the insecticidal activity [3] is reported as 100%.
